Measured values reported in patent publication US8192962B2, “Processes for detecting toxic substances” (Daikin Industries, Ltd., priority 2001, dated 2012).

Test system: Mitochondria-located protein genes
Assay: DNA chip mRNA expression in yeast, mitochondria-located protein genes (Table 2)
Type: cell-based, Saccharomyces cerevisiae S288C
Details: cells incubated two hours with the chemical substance
Summary of the method: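 S. cerevisiae S288C grown at 25° C. in YPD to log phase, then exposed 2 h to a toxicant at a growth-inhibiting, non-lethal concentration; untreated cells as control. Poly(A) mRNA reverse-transcribed with Cy3-dUTP or Cy5-dUTP, hybridized >12 h at 65° C. to whole-genome yeast DNA chip; value = fluorescence ratio treated/untreated.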

“manganese ethylenebis(dithiocarbamate) [(8)]” was tested, and the “The level of expressed mRNA in the presence of chemical substance/The level of expressed mRNA in the absence of chemical substance” value (yeast gene YJR121W) was 0.7, the “The level of expressed mRNA in the presence of chemical substance/The level of expressed mRNA in the absence of chemical substance” value (yeast gene YKL003C) was 1.2 and the “The level of expressed mRNA in the presence of chemical substance/The level of expressed mRNA in the absence of chemical substance” value (yeast gene YKL016C) was 1.6. The “The level of expressed mRNA in the presence of chemical substance/The level of expressed mRNA in the absence of chemical substance” value (yeast gene YKL141W) was 0.8, the “The level of expressed mRNA in the presence of chemical substance/The level of expressed mRNA in the absence of chemical substance” value (yeast gene YKL142W) was 2.3 and the “The level of expressed mRNA in the presence of chemical substance/The level of expressed mRNA in the absence of chemical substance” value (yeast gene YKL148C) was 0.8. The “The level of expressed mRNA in the presence of chemical substance/The level of expressed mRNA in the absence of chemical substance” value (yeast gene YKL170W) was 1.2, the “The level of expressed mRNA in the presence of chemical substance/The level of expressed mRNA in the absence of chemical substance” value (yeast gene YKL194C) was 1.1 and the “The level of expressed mRNA in the presence of chemical substance/The level of expressed mRNA in the absence of chemical substance” value (yeast gene YKR066C) was 0.7. The “The level of expressed mRNA in the presence of chemical substance/The level of expressed mRNA in the absence of chemical substance” value (yeast gene YLL041C) was 0.8, the “The level of expressed mRNA in the presence of chemical substance/The level of expressed mRNA in the absence of chemical substance” value (yeast gene YLR038C) was 1.4 and the “The level of expressed mRNA in the presence of chemical substance/The level of expressed mRNA in the absence of chemical substance” value (yeast gene YLR259C) was 0.8. For the same substance, the “The level of expressed mRNA in the presence of chemical substance/The level of expressed mRNA in the absence of chemical substance” value (yeast gene YLR295C) was 1.2, the “The level of expressed mRNA in the presence of chemical substance/The level of expressed mRNA in the absence of chemical substance” value (yeast gene YLR304C) was 0.6 and the “The level of expressed mRNA in the presence of chemical substance/The level of expressed mRNA in the absence of chemical substance” value (yeast gene YLR348C) was 0.9. The “The level of expressed mRNA in the presence of chemical substance/The level of expressed mRNA in the absence of chemical substance” value (yeast gene YLR395C) was 1.0, the “The level of expressed mRNA in the presence of chemical substance/The level of expressed mRNA in the absence of chemical substance” value (yeast gene YML054C) was 1.5 and the “The level of expressed mRNA in the presence of chemical substance/The level of expressed mRNA in the absence of chemical substance” value (yeast gene YML120C) was 0.9. The “The level of expressed mRNA in the presence of chemical substance/The level of expressed mRNA in the absence of chemical substance” value (yeast gene YML129C) was 1.2, the “The level of expressed mRNA in the presence of chemical substance/The level of expressed mRNA in the absence of chemical substance” value (yeast gene YMR023C) was 1.4 and the “The level of expressed mRNA in the presence of chemical substance/The level of expressed mRNA in the absence of chemical substance” value (yeast gene YMR035W) was 1.4. For the same substance, the “The level of expressed mRNA in the presence of chemical substance/The level of expressed mRNA in the absence of chemical substance” value (yeast gene YMR083W) was 1.1, the “The level of expressed mRNA in the presence of chemical substance/The level of expressed mRNA in the absence of chemical substance” value (yeast gene YMR089C) was 1.3 and the “The level of expressed mRNA in the presence of chemical substance/The level of expressed mRNA in the absence of chemical substance” value (yeast gene YMR152W) was 0.8. The “The level of expressed mRNA in the presence of chemical substance/The level of expressed mRNA in the absence of chemical substance” value (yeast gene YMR203W) was 0.7, the “The level of expressed mRNA in the presence of chemical substance/The level of expressed mRNA in the absence of chemical substance” value (yeast gene YMR267W) was 1.5 and the “The level of expressed mRNA in the presence of chemical substance/The level of expressed mRNA in the absence of chemical substance” value (yeast gene YNL055C) was 0.7. For the same substance, the “The level of expressed mRNA in the presence of chemical substance/The level of expressed mRNA in the absence of chemical substance” value (yeast gene YNL071W) was 0.9, the “The level of expressed mRNA in the presence of chemical substance/The level of expressed mRNA in the absence of chemical substance” value (yeast gene YNL073W) was 1.0 and the “The level of expressed mRNA in the presence of chemical substance/The level of expressed mRNA in the absence of chemical substance” value (yeast gene YNL104C) was 0.9. The “The level of expressed mRNA in the presence of chemical substance/The level of expressed mRNA in the absence of chemical substance” value (yeast gene YNL256W) was 0.9, the “The level of expressed mRNA in the presence of chemical substance/The level of expressed mRNA in the absence of chemical substance” value (yeast gene YOL096C) was 1.0 and the “The level of expressed mRNA in the presence of chemical substance/The level of expressed mRNA in the absence of chemical substance” value (yeast gene YOR020C) was 1.7. The “The level of expressed mRNA in the presence of chemical substance/The level of expressed mRNA in the absence of chemical substance” value (yeast gene YOR037W) was 1.5, the “The level of expressed mRNA in the presence of chemical substance/The level of expressed mRNA in the absence of chemical substance” value (yeast gene YOR100C) was 1.0 and the “The level of expressed mRNA in the presence of chemical substance/The level of expressed mRNA in the absence of chemical substance” value (yeast gene YOR130C) was 0.8. For the same substance, the “The level of expressed mRNA in the presence of chemical substance/The level of expressed mRNA in the absence of chemical substance” value (yeast gene YOR142W) was 0.8, the “The level of expressed mRNA in the presence of chemical substance/The level of expressed mRNA in the absence of chemical substance” value (yeast gene YOR150W) was 1.1 and the “The level of expressed mRNA in the presence of chemical substance/The level of expressed mRNA in the absence of chemical substance” value (yeast gene YOR176W) was 1.0. For the same substance, the “The level of expressed mRNA in the presence of chemical substance/The level of expressed mRNA in the absence of chemical substance” value (yeast gene YOR187W) was 0.7, the “The level of expressed mRNA in the presence of chemical substance/The level of expressed mRNA in the absence of chemical substance” value (yeast gene YOR316C) was 0.8 and the “The level of expressed mRNA in the presence of chemical substance/The level of expressed mRNA in the absence of chemical substance” value (yeast gene YPL040C) was 1.1. The “The level of expressed mRNA in the presence of chemical substance/The level of expressed mRNA in the absence of chemical substance” value (yeast gene YPL134C) was 1.3, the “The level of expressed mRNA in the presence of chemical substance/The level of expressed mRNA in the absence of chemical substance” value (yeast gene YPL135W) was 1.0 and the “The level of expressed mRNA in the presence of chemical substance/The level of expressed mRNA in the absence of chemical substance” value (yeast gene YPL215W) was 1.1. For the same substance, the “The level of expressed mRNA in the presence of chemical substance/The level of expressed mRNA in the absence of chemical substance” value (yeast gene YPL262W) was 1.0, the “The level of expressed mRNA in the presence of chemical substance/The level of expressed mRNA in the absence of chemical substance” value (yeast gene YPR024W) was 0.7 and the “The level of expressed mRNA in the presence of chemical substance/The level of expressed mRNA in the absence of chemical substance” value (yeast gene YPR037C) was 1.1. For the same substance, the “The level of expressed mRNA in the presence of chemical substance/The level of expressed mRNA in the absence of chemical substance” value (yeast gene YPR047W) was 1.2 and the “The level of expressed mRNA in the presence of chemical substance/The level of expressed mRNA in the absence of chemical substance” value (yeast gene YPR134W) was 1.4.
